These molecules were tested against human PD-L1 / Human PD-1 (Homo sapiens (Human), UniProt Q9NZQ7) (assay: Enzyme-Linked Immunosorbent Assay (ELISA), PD-1/PD-L1 binding). Conditions: plate-coated human PD-L1, biotinylated human PD-1.
Sequence of human PD-L1 / Human PD-1 (Q9NZQ7 19-239): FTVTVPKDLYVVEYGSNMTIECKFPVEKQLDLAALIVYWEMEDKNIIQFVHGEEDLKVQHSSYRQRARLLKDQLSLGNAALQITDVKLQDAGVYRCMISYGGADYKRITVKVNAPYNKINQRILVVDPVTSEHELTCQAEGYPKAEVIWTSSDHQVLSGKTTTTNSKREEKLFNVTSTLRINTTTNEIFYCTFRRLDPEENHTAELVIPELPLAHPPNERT
Protocol: Biological Example: Enzyme-Linked Immunosorbent Assay—ELISA
96 Well plates were coated with […] of human PD-L1 (obtained from R&D) in PBS overnight at 4° C. The wells were then blocked with 2% BSA in PBS (W/V) with 0.05% TWEEN-20 for 1 hour at 37° C. The plates were washed 3 times with PBS/0.05% TWEEN-20 and the compounds were serial diluted (1:5) in dilution medium and added to the ELISA plates. Human PD-1 and biotin 0.3 μg/mL (ACRO Biosystems) were added and incubated for 1 hour at 37° C. then washed 3 times with PBS/0.05% TWEEN-20. A second block was performed with 2% BSA in PBS (W/V)/0.05% TWEEN-20 for 10 min at 37° C. and was washed 3 times with PBS/0.05% TWEEN-20. Streptavidin-HRP was added for 1 hour at 37° C. then washed 3 times with PBS/0.05% TWEEN-20. TMB substrate was added and reacted for 20 min at 37° C. A stop solution (2 N aqueous H2SO4) was added. The absorbance was read at 450 nm using a micro-plate spectrophotometer.
For Cc1c(OCCCN2CCC(O)CC2)cccc1-c1cccc2c1CCC2Oc1cc(OCc2cc(C#N)cc(C#N)c2)c(CN[C@@H](CO)C(=O)O)cc1Cl (some centres unmarked), the IC50 was < 5 nM. Cc1c(OCCCN2CCC(O)CC2)cccc1-c1cccc2c1CCC2Oc1cc(OCc2cc(C#N)cc(C#N)c2)c(CN[C@@H]2CCCC[C@@H]2O)cc1Cl (some centres unmarked) was tested, and the IC50 was < 5 nM. In the case of Cc1c(OCCCN2CCC(O)CC2)cccc1-c1cccc2c1CC[C@@H]2Oc1cc(OCc2cncc(C#N)c2)c(CN[C@H](C(=O)O)[C@@H](C)O)cc1Cl, the IC50 is reported as < 5 nM. For C[C@@H](O)[C@H](NCc1cc(Cl)c(O[C@H]2CCc3c(-c4cccc(OCCCN5CCC(O)CC5)c4F)cccc32)cc1OCc1cncc(C#N)c1)C(=O)O, the IC50 was < 5 nM. With CCOc1cc(O[C@H]2CCc3c(-c4cccc(OCCCN5CC[C@@H](O)C5)c4C)cccc32)c(Cl)cc1CN[C@@H]1CCCC[C@@H]1O the IC50 was 5 to 500 nM. Work on CCOc1cc(O[C@H]2CCc3c(-c4cccc(OCCCN5CC[C@@H](O)C5)c4C)cccc32)c(Cl)cc1CN[C@@H](CO)C(=O)OC(C)C yielded an IC50 of 5 to 500 nM. CCOc1cc(O[C@H]2CCc3c(-c4cccc(OCCCN5CC[C@@H](O)C5)c4C)cccc32)c(Cl)cc1CN[C@@](C)(CO)C(=O)OC(C)C was tested, and the IC50 was 5 to 500 nM. In the case of CCOc1cc(O[C@H]2CCc3c(-c4cccc(OCCCN5CC[C@@H](O)C5)c4C)cccc32)c(Cl)cc1CN1CCCC[C@H]1C(=O)O, the IC50 is reported as 5 to 500 nM. Cc1c(OCCCN2CCC(O)CC2)cccc1-c1cccc2c1CC[C@@H]2Oc1cc(OCc2cncc(C#N)c2)c(CN[C@H](C(N)=O)[C@@H](C)O)cc1Cl was tested, and the IC50 was < 5 nM. For Cc1c(OCCCN2CCC(O)CC2)cccc1-c1cccc2c1CC[C@@H]2Oc1cc(OCc2cncc(C#N)c2)c(CN[C@@H](CO)C(N)=O)cc1Cl, the IC50 was < 5 nM. For Cc1c(OCCCN2CCC(O)CC2)cccc1-c1cccc2c1CC[C@@H]2Oc1cc(OCc2cncc(C#N)c2)c(CN[C@H](C(=O)NS(C)(=O)=O)[C@@H](C)O)cc1Cl, the IC50 was < 5 nM. In the case of Cc1c(OCCCN2CCC(O)CC2)cccc1-c1cccc2c1CC[C@@H]2Oc1cc(OCc2cncc(C#N)c2)c(CN2CCC(O)CC2)cc1Cl, the IC50 is reported as < 5 nM. In the case of Cc1c(OCCCN2CCC(O)CC2)cccc1-c1cccc2c1CC[C@@H]2Oc1cc(OCc2cncc(C#N)c2)c(CN2CC[C@H](O)C2)cc1Cl, the IC50 is reported as < 5 nM. In the case of CCOc1cc(O[C@H]2CCc3c(-c4cccc(OCCCN5CC[C@@H](O)C5)c4C)cccc32)c(Cl)cc1CNC(CO)CO, the IC50 is reported as < 5 nM. CCOc1cc(O[C@H]2CCc3c(-c4cccc(OCCCN5CC[C@@H](O)C5)c4C)cccc32)c(Cl)cc1CNC(C)(CO)CO was tested, and the IC50 was < 5 nM. With Cc1c(OCCCN2CCC(O)CC2)cccc1-c1cccc2c1CC[C@@H]2Oc1cc(OCc2cncc(C#N)c2)c(CN2CC[C@@H](O)C2)cc1Cl the IC50 was < 5 nM. In the case of Cc1c(OCCCN2CCC(O)CC2)cccc1-c1cccc2c1CC[C@@H]2Oc1cc(OCc2cncc(C#N)c2)c(CNCC2CCC(=O)N2)cc1Cl (some centres unmarked), the IC50 is reported as < 5 nM. For Cc1c(OCCCN2CCC(O)CC2)cccc1-c1cccc2c1CC[C@@H]2Oc1cc(OCc2cncc(C#N)c2)c(CNCC(C)(C)O)cc1Cl, the IC50 was < 5 nM. With Cc1c(OCCCN2CCC(O)CC2)cccc1-c1cccc2c1CC[C@@H]2Oc1cc(OCc2cncc(C#N)c2)c(CN2CC(C(=O)O)C2)cc1Cl the IC50 was < 5 nM. Cc1c(OCCCN2CCC(O)CC2)cccc1-c1cccc2c1CC[C@@H]2Oc1cc(OCc2cncc(C#N)c2)c(CN[C@@H]2CCCC[C@H]2O)cc1Cl was tested, and the IC50 was < 5 nM. Molecule Cc1c(OCCCN2CCC(O)CC2)cccc1-c1cccc2c1CC[C@@H]2Oc1cc(OCc2cncc(C#N)c2)c(CNC(C)(CO)CO)cc1Cl has an IC50 of 5 to 500 nM. In the case of Cc1c(OCCCN2CCC(O)CC2)cccc1-c1cccc2c1CC[C@@H]2Oc1cc(OCc2cncc(C#N)c2)c(CN2CC(O)C2)cc1Cl, the IC50 is reported as < 5 nM. Cc1c(OCCCN2CCC(O)CC2)cccc1-c1cccc2c1CC[C@@H]2Oc1cc(OCc2cncc(C#N)c2)c(CNCc2cn(C)cn2)cc1Cl was tested, and the IC50 was < 5 nM. For Cc1c(OCCCN2CCC(O)CC2)cccc1-c1cccc2c1CC[C@@H]2Oc1cc(OCc2cncc(C#N)c2)c(CN[C@@H]2CCC[C@H]2O)cc1Cl, the IC50 was < 5 nM. Cc1c(OCCCN2CCC(O)CC2)cccc1-c1cccc2c1CC[C@@H]2Oc1cc(OCc2cncc(C#N)c2)c(CNC2(C(=O)O)CCC2)cc1Cl was tested, and the IC50 was < 5 nM. In the case of Cc1c(OCCCN2CCC(O)CC2)cccc1-c1cccc2c1CC[C@@H]2Oc1cc(OCc2cncc(C#N)c2)c(CN[C@@H](CNC(=N)N)C(=O)O)cc1Cl, the IC50 is reported as < 5 nM. With Cc1c(OCCCN2CCC(O)CC2)cccc1-c1cccc2c1CC[C@@H]2Oc1cc(OCc2cncc(C#N)c2)c(CN2CCC(C)(O)CC2)cc1Cl the IC50 was < 5 nM. For COC(=O)C1(O)CCN(CCCOc2cccc(-c3cccc4c3CC[C@@H]4Oc3cc(OCc4cncc(C#N)c4)c(CN[C@H](C(=O)O)[C@@H](C)O)cc3Cl)c2C)C1 (some centres unmarked), the IC50 was < 5 nM. With Cc1c(OCCCN2CC(C)(O)C2)cccc1-c1cccc2c1CC[C@@H]2Oc1cc(OCc2cncc(C#N)c2)c(CNCC2CCC(=O)N2)cc1Cl (some centres unmarked) the IC50 was < 5 nM. Cc1c(OCCCN2C3CCC2CC(O)C3)cccc1-c1cccc2c1CC[C@@H]2Oc1cc(OCc2cncc(C#N)c2)c(CNCC2CCC(=O)N2)cc1Cl (some centres unmarked) was tested, and the IC50 was < 5 nM. In the case of Cc1c(OCCCN2CCC(F)CC2)cccc1-c1cccc2c1CC[C@@H]2Oc1cc(OCc2cncc(C#N)c2)c(CNCC2CCC(=O)N2)cc1Cl (some centres unmarked), the IC50 is reported as < 5 nM. Cc1c(OCCCN2CC(O)C2)cccc1-c1cccc2c1CC[C@@H]2Oc1cc(OCc2cncc(C#N)c2)c(CNCC2CCC(=O)N2)cc1Cl (some centres unmarked) was tested, and the IC50 was < 5 nM. N#Cc1cncc(COc2cc(O[C@H]3CCc4c(-c5cccc(OCCCN6CCC(O)CC6)c5Cl)cccc43)c(Cl)cc2CNCC2CCC(=O)N2)c1 (some centres unmarked) was tested, and the IC50 was < 5 nM. C[C@@H](O)[C@H](NCc1cc(Cl)c(O[C@H]2CCc3c(-c4cccc(OCCCN5CCC(O)CC5)c4Cl)cccc32)cc1OCc1cncc(C#N)c1)C(N)=O was tested, and the IC50 was < 5 nM. With Cc1c(OCCCN2CCC(F)CC2)cccc1-c1cccc2c1CC[C@@H]2Oc1cc(OCc2cncc(C#N)c2)c(CN[C@H](C(N)=O)[C@@H](C)O)cc1Cl the IC50 was 5 to 500 nM. Cc1c(OCCCN2CCC(O)CC2)cccc1-c1cccc2c1C[C@@H](F)[C@@H]2Oc1cc(OCc2cncc(C#N)c2)c(CN[C@@H](CO)C(=O)O)cc1Cl was tested, and the IC50 was < 5 nM. For Cc1c(OCCCN2CCC(O)CC2)cccc1-c1cccc2c1C[C@H](F)[C@@H]2Oc1cc(OCc2cncc(C#N)c2)c(CN[C@H](C(=O)O)[C@@H](C)O)cc1Cl, the IC50 was < 5 nM. Cc1c(OCCCN2CCC(O)CC2)cccc1-c1cccc2c1C[C@H](F)[C@@H]2Oc1cc(OCc2cncc(C#N)c2)c(CN[C@@](C)(CO)C(=O)O)cc1Cl was tested, and the IC50 was < 5 nM. Cc1c(OCCCN2CCC(O)CC2)cccc1-c1cccc2c1C[C@H](F)[C@@H]2Oc1cc(OCc2cncc(C#N)c2)c(CN[C@@H]2CCCC[C@@H]2O)cc1Cl was tested, and the IC50 was < 5 nM. In the case of Cc1c(OCCCN2CC[C@H](F)C2)cccc1-c1cccc2c1CC[C@@H]2Oc1cc(OCc2cncc(C#N)c2)c(CN[C@@H]2CCCC[C@@H]2O)cc1Cl, the IC50 is reported as < 5 nM. With Cc1c(OCCCN2CC[C@@H](F)C2)cccc1-c1cccc2c1CC[C@@H]2Oc1cc(OCc2cncc(C#N)c2)c(CN[C@@H]2CCCC[C@@H]2O)cc1Cl the IC50 was < 5 nM. For Cc1c(OCCCN2CCC(O)(C(=O)O)CC2)cccc1-c1cccc2c1CC[C@@H]2Oc1cc(OCc2cncc(C#N)c2)c(CN[C@H](C(=O)O)[C@@H](C)O)cc1Cl, the IC50 was < 5 nM. With CC(CO)(CO)NCc1cc(Cl)c(O[C@H]2CCc3c(-c4cccc(OCCCN5CCNC(=O)C5)c4Cl)cccc32)cc1OCc1cncc(C#N)c1 the IC50 was < 5 nM. With N#Cc1cncc(COc2cc(O[C@H]3CCc4c(-c5cccc(OCCCN6CCNC(=O)C6)c5Cl)cccc43)c(Cl)cc2CNC2(C(=O)O)CCC2)c1 the IC50 was < 5 nM.

Source: patent US10919852B2, “Immunomodulator compounds” (CHEMOCENTRYX, INC., priority 2017, dated 2021)
